Active and inactive are the calls of the source.
Experiments:
Caspase-6 = biological target: T1, Caspase-6 (Homo sapiens, UniProt P55212); assay: human caspase-6 inhibitors, dose response, biochemical, VEID-R110 fluorescence, cherry-pick (AID 720632)
T1 sequence (P55212 whole entry): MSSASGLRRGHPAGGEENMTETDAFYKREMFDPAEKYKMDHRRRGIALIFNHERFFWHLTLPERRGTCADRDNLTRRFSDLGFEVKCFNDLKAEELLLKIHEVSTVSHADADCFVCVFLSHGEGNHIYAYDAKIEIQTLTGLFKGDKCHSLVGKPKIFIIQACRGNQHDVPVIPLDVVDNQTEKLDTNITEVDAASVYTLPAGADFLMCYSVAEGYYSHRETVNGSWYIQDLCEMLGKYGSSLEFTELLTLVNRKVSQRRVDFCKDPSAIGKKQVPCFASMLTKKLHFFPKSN

[1] = A549 cell cytotoxicity, dose response, cytotoxicity control, plate reader, cherry-pick, antagonist series (AID 743412); format: functional, cell-based
[2] = HepG2 cell cytotoxicity, dose response, cytotoxicity control, plate reader, cherry-pick, antagonist series (AID 743416); format: functional, cell-based
[3] = HEK293 cell cytotoxicity, dose response, cytotoxicity control, plate reader, cherry-picked samples (AID 743446); format: functional, cell-based
[4] = microbe, parasite or virus in culture; format: functional; details: Mycobacterium tuberculosis
[5] = biological target: T2, Corticotropin-releasing factor receptor 2/Corticotropin-releasing factor-binding protein (Homo sapiens, UniProt P24387+Q13324); assay: Dose Response confirmation of uHTS hits for small molecule antagonists of the CRF-binding protein and CRF-R2 receptor complex.; format: functional; details: read-out: IC50_Mean
T2 sequence (Q13324 whole entry): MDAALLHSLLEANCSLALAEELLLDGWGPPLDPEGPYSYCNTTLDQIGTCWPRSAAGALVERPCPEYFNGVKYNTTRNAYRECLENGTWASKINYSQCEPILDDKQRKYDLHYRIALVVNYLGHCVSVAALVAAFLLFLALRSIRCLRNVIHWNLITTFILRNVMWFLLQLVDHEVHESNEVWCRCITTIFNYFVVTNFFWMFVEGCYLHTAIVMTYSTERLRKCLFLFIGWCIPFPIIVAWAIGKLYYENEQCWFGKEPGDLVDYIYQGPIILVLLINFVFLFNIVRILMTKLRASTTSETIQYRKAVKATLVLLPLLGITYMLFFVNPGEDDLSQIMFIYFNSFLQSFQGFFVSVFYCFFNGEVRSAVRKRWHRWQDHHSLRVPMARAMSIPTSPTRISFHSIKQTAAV
T2 sequence (P24387 whole entry): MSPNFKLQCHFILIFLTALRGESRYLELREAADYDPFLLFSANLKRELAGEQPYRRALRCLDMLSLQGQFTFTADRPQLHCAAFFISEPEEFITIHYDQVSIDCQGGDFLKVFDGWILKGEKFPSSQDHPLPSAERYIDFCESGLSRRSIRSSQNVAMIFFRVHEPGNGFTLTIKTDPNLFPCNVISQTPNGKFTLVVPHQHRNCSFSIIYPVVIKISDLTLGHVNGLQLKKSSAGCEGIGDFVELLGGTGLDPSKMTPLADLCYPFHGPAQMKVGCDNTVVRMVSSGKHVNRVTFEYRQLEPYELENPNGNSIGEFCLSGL

[6] = HEp-2 cell cytotoxicity, dose response, cytotoxicity control for RSV inhibitor project, HTS (AID 2410); format: functional; details: human respiratory syncytial virus
[7] = CRF-BP/CRF-R2 complex antagonists, dose response, cell-based, uHTS hits, 384-well (AID 651639); format: functional, Homo sapiens; details: read-out: IC50_Mean
[8] = biological target: T2, Corticotropin-releasing factor receptor 2/Corticotropin-releasing factor-binding protein; assay: activators of CRF receptor 2 with binding protein – uHTS hits, confirmation (AID 602473); format: functional; details: read-out: EC50_Mean
[9] = biological target: Disintegrin and metalloproteinase domain-containing protein 17 (Homo sapiens, UniProt P78536); assay: exosite inhibitors of ADAM17, dose response, biochemical (AID 743260)
H9c2 = assay: cells; format: functional, cell-based; details: Rattus norvegicus, H9c2, Myocardium;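 also: confirmatory concentration-response retest of ultra-high-throughput screening hits for modulation of myocardial damage; cell death induced by hydrogen peroxide oxidative stress; compound pretreatment for 60 min then peroxide exposure for 2 h; potency is for protecting the cells against peroxide damage rather than for killing them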
[10] = cytotoxicity in HPDE-C7 cells, cell-based, fluorescence, HTS (AID 430); format: functional; details: Homo sapiens
[11] = cytotoxicity in KRAS-transformed pancreatic duct cells, primary screen, cell-based, fluorescence, HTS (AID 431); format: functional; details: Homo sapiens;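 also: cell line used: HPDE-C7K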
[12] = LGR2 antagonists, dose response, cell-based, HEK293, CRE-luciferase reporter, cherry pick, set 2 (AID 743343); format: functional;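 also: transfected cells were stimulated with diluted bursicon conditioned medium after compound addition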
[13] = MC4R antagonists, dose response, counter-screen for LGR2 antagonist project, cell-based, plate reader, cherry pick (AID 743444); format: functional;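 also: transfected HEK 293 cells stimulated with alpha-MSH peptide; potency of inhibitors of the alpha-MSH evoked signal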
[14] = inhibitors of HIV Env-driven cell fusion, dose response, cherry-pick (AID 652057); format: functional, cell-based
[15] = inhibitors of clade B AD8 Env fusion, dose response, cell-based, cherry-pick (AID 652062); format: functional;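 also: luciferase signal from cell-cell fusion driven by HIV-1 clade B AD8 Env; potency is for inhibitors of fusion seen as a drop in luminescence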
[16] = ZM109 Env clade C HIV-1 fusion inhibitors, dose response, HeLa effector, CEM target cells, luciferase, cherry-pick (AID 652058); format: functional, cell-based
[17] = off-target signal loss in HeLa-CEM21 co-culture – HeLa F-luc CTL cells, cherry-picked, counter-screen for HIV-1 Env fusion inhibitor project, dose response (AID 652040); format: functional, cell-based;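 also: potency for signal decrease marking cytotoxic or nonspecific inhibition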
Estrogen receptor = biological target: T3, Estrogen receptor (Homo sapiens, UniProt P03372);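 also: potency for inhibiting coactivator peptide recruitment to the receptor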
T3 sequence (P03372 whole entry): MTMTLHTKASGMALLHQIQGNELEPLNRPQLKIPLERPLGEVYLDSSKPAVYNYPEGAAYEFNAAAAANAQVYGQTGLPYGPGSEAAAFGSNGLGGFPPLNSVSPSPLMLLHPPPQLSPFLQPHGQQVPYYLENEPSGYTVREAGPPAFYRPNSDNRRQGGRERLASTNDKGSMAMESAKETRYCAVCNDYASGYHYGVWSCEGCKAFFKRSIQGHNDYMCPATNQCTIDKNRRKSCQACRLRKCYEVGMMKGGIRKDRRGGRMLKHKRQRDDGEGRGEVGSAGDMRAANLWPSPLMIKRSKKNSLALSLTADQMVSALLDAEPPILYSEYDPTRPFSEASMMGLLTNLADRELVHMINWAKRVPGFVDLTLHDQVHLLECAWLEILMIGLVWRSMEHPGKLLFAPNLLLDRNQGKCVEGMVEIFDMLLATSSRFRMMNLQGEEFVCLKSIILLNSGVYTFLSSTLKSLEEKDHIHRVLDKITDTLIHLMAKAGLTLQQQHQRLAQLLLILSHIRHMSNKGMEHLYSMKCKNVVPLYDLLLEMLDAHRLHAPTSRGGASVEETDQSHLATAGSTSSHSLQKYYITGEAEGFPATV

[18] = THP-1 cell cytotoxicity, dose response, cytotoxicity control for Vif-APOBEC3G degradation inhibitor project, THP-1 cells (AID 1117359); format: functional; details: Human immunodeficiency virus 1, THP-1
[19] = biological target: T4, Long-chain-fatty-acid--AMP ligase FadD28 (Mycobacterium tuberculosis, UniProt P9WQ59); assay: Fluorescence polarization aasay to screen for inhibitors that compete for the binding of FadD28 to a bisubstrate Measured in Biochemical System Using Plate Reader - 2147-01_Inhibitor_Dose_CherryPick_Activity.; format: functional, Mycobacterium tuberculosis H37Rv
T4 sequence (P9WQ59 whole entry): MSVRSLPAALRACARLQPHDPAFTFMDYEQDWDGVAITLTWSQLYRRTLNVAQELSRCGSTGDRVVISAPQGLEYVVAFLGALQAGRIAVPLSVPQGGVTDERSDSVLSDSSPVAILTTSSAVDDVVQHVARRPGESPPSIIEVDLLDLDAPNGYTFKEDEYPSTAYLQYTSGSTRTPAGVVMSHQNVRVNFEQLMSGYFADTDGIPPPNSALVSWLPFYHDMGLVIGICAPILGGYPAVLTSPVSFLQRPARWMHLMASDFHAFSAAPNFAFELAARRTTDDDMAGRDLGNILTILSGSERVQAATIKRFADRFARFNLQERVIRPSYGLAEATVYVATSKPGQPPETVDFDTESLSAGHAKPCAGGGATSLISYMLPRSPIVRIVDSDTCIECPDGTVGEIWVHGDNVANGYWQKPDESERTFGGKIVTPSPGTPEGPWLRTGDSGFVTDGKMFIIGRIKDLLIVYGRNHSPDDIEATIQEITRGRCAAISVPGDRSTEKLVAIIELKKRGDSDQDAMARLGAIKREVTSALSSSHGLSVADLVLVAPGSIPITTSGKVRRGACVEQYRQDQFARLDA

Chain of Disintegrin and metalloproteinase domain-containing protein 17 (P78536 whole entry, the tested form may be a part): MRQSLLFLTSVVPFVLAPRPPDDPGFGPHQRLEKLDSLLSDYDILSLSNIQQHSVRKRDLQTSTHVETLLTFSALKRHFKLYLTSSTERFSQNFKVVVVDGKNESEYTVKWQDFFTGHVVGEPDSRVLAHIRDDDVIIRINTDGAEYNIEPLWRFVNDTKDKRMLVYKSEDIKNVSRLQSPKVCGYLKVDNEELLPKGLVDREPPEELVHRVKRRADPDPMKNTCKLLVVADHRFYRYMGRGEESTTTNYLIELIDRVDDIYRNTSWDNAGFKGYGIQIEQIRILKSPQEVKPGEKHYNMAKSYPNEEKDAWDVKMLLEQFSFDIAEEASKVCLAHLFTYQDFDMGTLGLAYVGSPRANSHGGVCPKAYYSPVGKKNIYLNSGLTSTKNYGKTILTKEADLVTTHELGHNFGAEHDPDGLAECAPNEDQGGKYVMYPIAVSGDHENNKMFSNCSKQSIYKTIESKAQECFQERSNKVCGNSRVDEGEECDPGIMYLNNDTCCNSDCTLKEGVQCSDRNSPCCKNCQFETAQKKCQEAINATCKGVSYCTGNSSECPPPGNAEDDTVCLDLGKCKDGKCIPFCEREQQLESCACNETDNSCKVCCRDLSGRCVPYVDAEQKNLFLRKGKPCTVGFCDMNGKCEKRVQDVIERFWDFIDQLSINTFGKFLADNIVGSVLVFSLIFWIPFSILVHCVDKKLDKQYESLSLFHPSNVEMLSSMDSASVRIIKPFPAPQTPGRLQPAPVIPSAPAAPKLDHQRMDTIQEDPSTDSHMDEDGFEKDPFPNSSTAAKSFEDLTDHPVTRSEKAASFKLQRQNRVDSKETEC

For `Cc1cc(/C=N/NC(=O)C(O)(c2ccccc2)c2ccccc2)c(C)n1-c1cccc(C(=O)O)c1`, the AC50 (Caspase-6) was 1.78 µM (active).
With `CC(C)(C)c1nc2ccc(Cl)cn2c1CC1CCCCC1` the AC50 [1] was > 52 µM (inactive), the AC50 [2] was > 52 µM (inactive) and the AC50 [3] was > 52 µM (inactive).
With `COC(=O)C(NC(=O)c1ccc(OC)cc1)(Nc1ncc(S(=O)(=O)c2ccc([N+](=O)[O-])cc2)s1)C(F)(F)F` (stereo unspecified) the CC50 [4] was > 40 µM (active), the IC50 [5] was < 0.368 µM (active) and the CC50 [6] was 13.4 µM (active). The IC50 [7] was 2.58 µM (active) and the EC50 [8] was > 53 µM (inactive).
With `O=C1OCCN1C(=O)[C@H]1[C@H](c2ccc([N+](=O)[O-])cc2)C(c2ccccc2)=NN1c1ccc(Br)cc1` the IC50 [9] was > 69.5 µM (inactive) and the IC50 (H9c2) was 15.2 µM (active).
With `Cc1ccc(-c2nnc(N3CCN(c4ccccn4)CC3)c3ccccc23)cc1` the EC50 [10] was 16.5 µM (active) and the EC50 [11] was 16.7 µM (active).
In the case of `Cc1ccsc1/C=N\NC(=O)c1[nH]nc2c1CCC2`, the AC50 [1] is reported as 3.65 µM (active), the AC50 [12] is reported as 6.59 µM (active) and the AC50 [2] is reported as 4.37 µM (active). The AC50 [3] was 16.4 µM (active) and the AC50 [13] was 7.75 µM (active).
In the case of `CC[C@@]12C(=O)N(c3ccc(C)cc3)C(=O)N1[C@H](c1ccc(Br)cc1)[C@@H]1C(=O)N(C(C)(C)C)C(=O)[C@@H]12`, the AC50 [14] is reported as 0.301 µM (active), the CC50 [6] is reported as > 50 µM (active) and the AC50 [15] is reported as 1.06 µM (active). For the same compound, the AC50 [16] was < 0.5 µM (active) and the AC50 [17] was 0.559 µM (active).
With `Brc1ccccc1-c1nnc(CSc2nnnn2-c2ccccc2)o1` the IC50 [5] was 8.93 µM (active), the IC50 (Estrogen receptor) was > 50 µM (not active) and the IC50 [7] was 1.36 µM (active). For the same compound, the EC50 [8] was > 53 µM (inactive).
For `CC(OC(=O)CC1CCCC1)C(=O)Nc1ccc(Cl)cn1` (stereo unspecified), the CC50 [18] was > 40 µM (active).
In the case of `O=C1CCCC2=C1C(c1ccc(Cl)cc1)C1C(=O)c3ccccc3C1=N2` (stereo unspecified), the CC50 [6] is reported as 17 µM (active) and the AC50 [19] is reported as > 100 µM (inactive).
With `Cc1ccc(S(=O)(=O)NCCC(=O)N2CCN(C/C=C/c3ccccc3)CC2)cc1` the CC50 [18] was > 40 µM (active).

Source: ChEMBL document CHEMBL1201862, “PubChem BioAssay data set” (2004)
